# B1: CPR-4: S. cerevisiae NCP1, Accession No. YHR042W (protein, UniProt P16603 2-691, looked up)
# NADPH--cytochrome P450 …: PFGIDNTDFTVLAGLVLAVLLYVKRNSIKELLMSDDGDITAVSSGNRDIAQVVTENNKNYLVLYASQTGTAEDYAKKFSKELVAKFNLNVMCADVENYDFESLNDVPVIVSIFISTYGEGDFPDGAVNFEDFICNAEAGALSNLRYNMFGLGNSTYEFFNGAAKKAEKHLSAAGAIRLGKLGEADDGAGTTDEDYMAWKDSILEVLKDELHLDEQEAKFTSQFQYTVLNEITDSMSLGEPSAHYLPSHQLNRNADGIQLGPFDLSQPYIAPIVKSRELFSSNDRNCIHSEFDLSGSNIKYSTGDHLAVWPSNPLEKVEQFLSIFNLDPETIFDLKPLDPTVKVPFPTPTTIGAAIKHYLEITGPVSRQLFSSLIQFAPNADVKEKLTLLSKDKDQFAVEITSKYFNIADALKYLSDGAKWDTVPMQFLVESVPQMTPRYYSISSSSLSEKQTVHVTSIVENFPNPELPDAPPVVGVTTNLLRNIQLAQNNVNIAETNLPVHYDLNGPRKLFANYKLPVHVRRSNFRLPSNPSTPVIMIGPGTGVAPFRGFIRERVAFLESQKKGGNNVSLGKHILFYGSRNTDDFLYQDEWPEYAKKLDGSFEMVVAHSRLPNTKKVYVQDKLKDYEDQVFEMINNGAFIYVCGDAKGMAKGVSTALVGILSRGKSITTDEATELIKMLKTSGRYQEDVW
# B2: codon-optimized UGT85C2: UGT85C2 expressed from the GeneArt codon-optimized sequence; amino acid sequence unchanged (protein, UniProt Q6VAB0 1-481, looked up)
# UDP-glycosyltransferase 85C2: MDAMATTEKKPHVIFIPFPAQSHIKAMLKLAQLLHHKGLQITFVNTDFIHNQFLESSGPHCLDGAPGFRFETIPDGVSHSPEASIPIRESLLRSIETNFLDRFIDLVTKLPDPPTCIISDGFLSVFTIDAAKKLGIPVMMYWTLAACGFMGFYHIHSLIEKGFAPLKDASYLTNGYLDTVIDWVPGMEGIRLKDFPLDWSTDLNDKVLMFTTEAPQRSHKVSHHIFHTFDELEPSIIKTLSLRYNHIYTIGPLQLLLDQIPEEKKQTGITSLHGYSLVKEEPECFQWLQSKEPNSVVYVNFGSTTVMSLEDMTEFGWGLANSNHYFLWIIRSNLVIGENAVLPPELEEHIKKRGFIASWCSQEKVLKHPSVGGFLTHCGWGSTIESLSAGVPMICWPYSWDQLTNCRYICKEWEVGLEMGTKVKRDEVKRLVQELMGEGGHKMRNKAKDWKEKARIAIAPNGSSSLNIDKMVKEITVLARN
# What was measured:
# S. cerevisiae = assay: Toxicity of intermediates: growth of S. cerevisiae CEN.PK; format: cell-based; conditions: growth of CEN.PK transformants
# Source text: The effect on S. cerevisiae vitality of geranyl geranyl pyrophosphate (GGPP), ent-copalyl diphosphate (CDP) or ent-kaurene production was investigated by expression of Synechococcus sp GGPPS alone (GGPP production), the GGPPS and the 50 amino acid N-terminally truncated Zea mays CDPS (see Example 16) together (CDP production), or the GGPPS, truncated CDPS and the Arabidopsis thaliana kaurene synthase (KS5) together (ent kaurene production) in the laboratory S. cerevisiae strain CEN.PK background. Genes were expressed from 2μ plasmids with GPD promoters driving transcription of truncated CDPS and KS5, while transcription of the GGPPS was driven by the ADH1 promoter. The growth of S. cerevisiae CEN.PK transformed with various combinations of these plasmids (GGPPS alone; GGPPS+truncated CDPS; or GGPPS+truncated CDPS+KS5) or plasmids without gene insertions was observed. GGPP production, and especially CDP production, was toxic to S. cerevisiae when produced as end products.
# RebA solubility in water = format: physicochemical
# Experimental: The solubility of RebA determines the concentration that can be used both for the whole-cell approach and for the cell-free approach. Several different solutions of RebA in water were made and left at room temperature for several days. After 24 hours of storage, RebA precipitated at concentrations of 50 mM or higher. Twenty-five mM RebA started to precipitate after 4-5 days, while 10 mM or lower concentrations remained in solution, even when stored at 4° C.
# [1] = tested on: Stevia rebaudiana kaurene oxidase; assay: Ent-kaurenoic acid accumulation in EFSC2386 with different CPRs (activation of KO1); format: cell-based, S. cerevisiae; conditions: LC-MS peak area; with KO-1 in EFSC2386
# Source text: The CEN.PK S. Cerevisiae EFSC2386 strain and the CPRs referred to in this Example are described in the Example 11 (“Identification of S. rebaudiana KAH”). EFSC2386 contained the following integrated genes: Aspergillus nidulans Geranyl geranyl pyrophosphate synthase (GGPPS); Zea mays ent-copalyl diphosphate synthase (CDPS); Stevia rebaudiana ent-kaurene synthase (KS); and Stevia rebaudiana ent-kaurene oxidase (KO). This strain produces ent-kaurenoic acid that was detected by LC-MS analysis.
# A collection of cytochrome P450 reductases (CPRs) were expressed and tested in strain EFSC2386; “CPR1” (S. rebaudiana NADPH dependent cytochrome P450 reductase, Kumar et al., Accession no. DQ269454); “ATR1” (A. thaliana CPR, Accession No. CAA23011); “ATR2” (A. thaliana CPR, Accession No. CAA46815); “CPR7” (S. rebaudiana CPR, CPR7 is similar to “CPR1”); “CPR8” (S. rebaudiana CPR, similar to Artemisia annua CPR; and “CPR4” (S. cerevisiae NCP1, Accession No. YHR042W).
# Overexpression of the S. cerevisiae endogenous native CPR (referred to as CPR4 in Table 14), and especially overexpression of one of the A. thaliana CPRs namely ATR2, gives good activation of the Stevia rebaudiana kaurene oxidase (the latter called KO1 in Table 14) and results in increased accumulation of ent-kaurenoic acid. See Table 14, which presents the area under curve (AUC) of the ent-kaurenoic acid peak in the LC-MS chromatograms. KO1 is an ent-kaurenoic acid producing yeast control strain without additional overexpression of CPRs.
# [2] = tested on: S. cerevisiae strain BY4741; assay: Steviol-feeding experiment of S. cerevisiae strain BY4741; format: cell-based
# Experimental: Further experiments were conducted to determine if the codon-optimized UGT85C2 could reduce 19-SMG accumulation and increase rubusoside and higher glycosylated steviol glycosides production. The production of 19-SMG and rubusoside were analysed in a steviol-feeding experiment of S. cerevisiae strain BY4741 expressing the wild type UGT74G1 as well as the codon-optimized UGT85C2 from high copy (2p) vectors under strong constitutive promoter (GPD1) (vectors P426-GPD and P423-GPD, respectively). Whole culture samples (without cell removal) were taken and boiled in an equal volume of DMSO for total glycosides levels. Intracellular concentrations reported were obtained by pelleting cells, and resuspending in 50% DMSO to the volume of the original culture sample taken, followed by boiling. The “total” glycosides level and the normalized intracellular level then were measured using LC-MS. Using wild type UGT74G1 and wild type UGT85C2, approximately 13.5 μM rubusoside was produced in total with a maximum normalized intracellular concentration of about 7 μM. In contrast, when wild type UGT74G1 and codon-optimized UGT85C2 were used, a maximum of 26 μM rubusoside was produced, or approximately double of what was produced using the wild type UGT85C2. Additionally, the maximum normalized intracellular concentration of rubusoside was 13 μM, again an approximate doubling of what was produced using wild type UGT85C2. […] Consequently, about 10 μM less total 19-SMG was measured for the codon-optimized UGT85C2.
# [3] = co-expressed with wild type UGT74G1, steviol feeding
# Sequence of Stevia rebaudiana kaurene oxidase (as listed by the source): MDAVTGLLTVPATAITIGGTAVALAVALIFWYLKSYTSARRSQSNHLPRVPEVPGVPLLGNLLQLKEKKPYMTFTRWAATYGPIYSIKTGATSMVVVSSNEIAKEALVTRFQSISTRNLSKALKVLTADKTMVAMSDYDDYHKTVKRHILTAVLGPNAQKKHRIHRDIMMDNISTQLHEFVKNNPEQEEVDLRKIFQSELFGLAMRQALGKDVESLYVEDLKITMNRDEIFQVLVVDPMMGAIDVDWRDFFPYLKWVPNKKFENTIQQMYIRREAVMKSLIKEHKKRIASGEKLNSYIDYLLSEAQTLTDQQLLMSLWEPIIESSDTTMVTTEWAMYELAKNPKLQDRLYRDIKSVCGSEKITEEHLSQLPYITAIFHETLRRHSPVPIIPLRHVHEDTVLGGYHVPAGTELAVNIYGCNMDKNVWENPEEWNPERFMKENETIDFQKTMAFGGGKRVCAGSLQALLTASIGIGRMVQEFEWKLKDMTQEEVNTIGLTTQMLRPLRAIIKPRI
Molecule,toxicity to S. cerevisiae when produced as end product (S. cerevisiae),Ent-Kaurenoic Acid (AUC) [1] [AUC],further results
"C=C1CC[C@@H]2C(C)(C)CCC[C@@]2(C)[C@@H]1CC/C(C)=C/COP(=O)(O)OP(=O)(O)O [CDP, ent-copalyl diphosphate]",toxic,–,–
"CC(C)=CCC/C(C)=C/CC/C(C)=C/CC/C(C)=C/COP(=O)(O)OP(=O)(O)O [GGPP, geranyl geranyl pyrophosphate]",toxic,–,–
"C=C1C[C@@]23CC[C@H]4[C@@](C)(CCC[C@@]4(C)C(=O)O[C@@H]4O[C@H](CO)[C@@H](O)[C@H](O)[C@H]4O)[C@@H]2CC[C@]1(O[C@@H]1O[C@H](CO)[C@@H](O)[C@H](O[C@@H]2O[C@H](CO)[C@@H](O)[C@H](O)[C@H]2O)[C@H]1O[C@@H]1O[C@H](CO)[C@@H](O)[C@H](O)[C@H]1O)C3 [RebA, Rebaudioside A]",–,–,"time until precipitation started (RebA solubility in water; Twenty-five mM RebA in water): 4 to 5 days; concentration at which RebA precipitated (RebA solubility in water; water, room temperature, after 24 hours of storage): ≥ 50 mM; concentration that remained in solution (RebA solubility in water; water, several days, even when stored at 4° C.): ≥ 10 mM"
C=C1C[C@@]23CC[C@@H]4C(C)(C)CCC[C@@]4(C)[C@@H]2CC[C@@H]1C3 [ent-kaurene],not be toxic,–,–
"ATR-2: A. thaliana CPR, Accession No. CAA46815",–,29412,–
"CPR-1: S. rebaudiana NADPH dependent cytochrome P450 reductase, Accession no. DQ269454",–,14113,–
"CPR-8: S. rebaudiana CPR, similar to Artemisia annua CPR",–,12590,–
B1,–,25103,–
B2,–,–,"less total 19-SMG than with wild type UGT85C2 [2]: about 10 μM; maximum intracellular concentration of 19-SMG [2, 3]: 19 µM; maximum normalized intracellular concentration of rubusoside [2, 3]: 13 µM; rubusoside produced in total [2, 3]: 26 µM"

# Source: US12416034B2, “Recombinant production of steviol glycosides” (EVOLVA SA, priority 2011, dated 2025)
